The assay can be described thus: Reduction of viral RNA and protein in Huh7 cells containing HCV sub-genomic replicon.

Turning to `CCC[C@]1(CC(=O)O)OCCc2c1sc1c(C)cc(F)c(C#N)c21` [((R)-5-cyano-6-fluoro-8-methyl-1-propyl-3,4-dihydro-1H-benzo[4,5]thieno[2,3-c]pyran-1-yl)-acetic acid], the EC50 amounted to 3.2 µM.

For the origin of these results see BindingDB's records for doi:10.1016/j.bmcl.2005.08.114 (Wyeth Research, 2005).
